Article PMC9785278, “3-(1,2,3-Triazol-4-yl)-β-Carbolines and 3-(1H-Tetrazol-5-yl)-β-Carbolines: Synthesis and Evaluation as Anticancer Agents” (Pharmaceuticals, 2022)

Key:
HCT116 p53−/− cells = assay: SRB antiproliferative assay, HCT116 p53−/−; format: cell-based; details: Homo sapiens, HCT-116, 48 h of treatment, p53 knockout, mean ± SEM
Source text: (§1) Human colorectal adenocarcinoma HCT116 cell lines expressing p53 and its p53-null isogenic derivative (HCT116 p53^−/−) were provided by B. Vogelstein (The Johns Hopkins Kimmel Cancer Center, Baltimore, MD, USA). Human colorectal adenocarcinoma SW837, HT29, pancreatic carcinoma PANC-1, breast adenocarcinoma MCF-7, hepatocarcinoma HEPG2, melanoma A375, normal human foreskin fibroblasts HFF-1, and normal human colon CCD-18Co cell lines were purchased from ATCC (Rockville, MD, USA). The cancer cell lines were routinely cultured with RPMI-1640 medium from Biowest (HCT116, HCT116 p53^−/−, SW837, HT29, A375, MCF-7, HEPG-2, and […]) or DMEM with 5% glucose (HFF-1) and supplemented with 10% fetal bovine serum from Gibco (Alfagene, Lisboa, Portugal). All cells were maintained in a humidified incubator at 37 °C and 5% CO2.
(§2) Human cell lines were seeded in 96-well plates at a density of 5.0 × 10^3 (HCT116 p53 ^−/−, HCT116 wt, HT29, SW837, CCD-18Co, HFF-1, and MCF-7 cell lines) or 4.5 × 10^3 (A375, HEPG2 and PANC-1 cell lines) cells per well, for 24 h. Cells were treated with the appropriate compound, with serial dilutions ranging from 0.2 to 50 µM, for 48 h. Following the incubation, the effects on cell proliferation were evaluated through the SRB assay as stated by Ramos et al.. The IC50 values were determined using the software GraphPad Prism version 9.0.

[1] = tested on: breast adenocarcinoma (MCF-7); design: method as in PMID 31247374; details: cited from earlier work
MCF-7 cells = assay: SRB antiproliferative assay, MCF-7; format: cell-based, human; details: 48 h of treatment, mean ± SEM
Source text: as §1, §2

HT29 cells = assay: SRB antiproliferative assay, HT29; format: cell-based; details: Homo sapiens, HT-29, 48 h of treatment, mean ± SEM
Source text: as §1, §2

CCD-18Co cells = assay: SRB cytotoxicity assay, normal colon CCD-18Co; format: cell-based; details: 48 h of treatment, normal human colon cell line, mean ± SEM
Source text: as §1, §2

A375 cells = assay: SRB antiproliferative assay, A375; format: cell-based, human; details: 48 h of treatment, mean ± SEM
Source text: as §1, §2

PANC-1 cells = assay: SRB antiproliferative assay, PANC-1; format: cell-based, human; details: 48 h of treatment, mean ± SEM
Source text: as §1, §2

SW837 cells = assay: SRB antiproliferative assay, SW837; format: cell-based; details: Homo sapiens, 48 h of treatment, mean ± SEM
Source text: as §1, §2

HCT116 cells [2] = assay: SRB antiproliferative assay, HCT116 (wt p53); format: cell-based; details: Homo sapiens, HCT-116, 48 h of treatment, mean ± SEM
Source text: as §1, §2

HFF-1 cells = assay: SRB assay, normal foreskin fibroblasts HFF-1; format: cell-based; details: 48 h of treatment, normal human foreskin fibroblasts, mean ± SEM
Source text: as §1, §2

HCT116 cells [3] = assay: Annexin-V apoptosis assay, HCT116; format: cell-based, human; details: HCT116, 4.5 and 9.0 μM, 48 h, flow cytometry PI/Annexin-V
Experimental: The analysis of apoptotic cell death was performed essentially as described by Ramos et al.. Briefly, 1.5 × 10^5 HCT116 cells/well were seeded in 6-well plates, allowed to adhere overnight, and then treated with 4.5 and 9.0 μM of compound 1a. After 48 h of treatment, cells were stained using the Annexin V-FITC Apoptosis Detection Kit I from BD Biosciences (Enzifarma, Porto, Portugal), according to the manufacturer’s instructions. The AccuriTM C6 flow cytometer and the BD Accuri C6 software (BD Biosciences) were used.

HEPG2 cells = assay: SRB antiproliferative assay, HEPG2; format: cell-based, human; details: 48 h of treatment, mean ± SEM
Source text: as §1, §2

leukemia (K-562) = tested on: leukemia (K-562); design: method as in PMID 31247374; details: cited from earlier work
[4] = tested on: ovarian carcinoma (OVCAR-3); design: method as in PMID 31247374; details: cited from earlier work
[5] = tested on: renal adenocarcinoma (786-0); design: method as in PMID 31247374; details: cited from earlier work

SMILES	IC50 (HCT116 p53−/− cells)	IC50 (HT29 cells)	IC50 (SW837 cells)	IC50 (HCT116 cells [2])	melting point	IC50 (CCD-18Co cells)	further results
c1ccc(Cn2nnnc2-c2cc3c([nH]c4ccccc43)c(-c3ccccc3)n2)cc1 [1a]	4.6 ± 0.43 µM	9 ± 0.55 µM	44 ± 0.82 µM	4.5 ± 0.05 µM	–	26 ± 0.82 µM	IC50 [1]: 4.4 µM; IC50 (MCF-7 cells; listed as C00001): 7.7 ± 0.7 µM; IC50 (MCF-7 cells; Homo sapiens, MCF7, 48 h): < 8 µM; IC50 (A375 cells; listed as C00001): 5.6 ± 0.2 µM; IC50 (A375 cells; Homo sapiens, A-375, 48 h): < 8 µM; IC50 (PANC-1 cells; listed as C00001): 4 ± 0.4 µM; IC50 (PANC-1 cells; Homo sapiens, PANC-1, 48 h): < 8 µM; IC50 (HFF-1 cells): 29 ± 1.5 µM; Apoptotic cell death (Annexin-positive cells) (HCT116 cells [3]): associated with apoptotic cell death; IC50 (HEPG2 cells; listed as C00001): 7.5 ± 1.27 µM; IC50 (HEPG2 cells; Homo sapiens, HepG2, 48 h): < 8 µM
COc1ccc(-c2nc(-c3nnnn3Cc3ccccc3)cc3c2[nH]c2ccccc23)cc1 [1b]	4.2 ± 0.31 µM	5.9 ± 1.19 µM	25 ± 1.63 µM	4.3 ± 0.08 µM	–	3.4 ± 0.29 µM	–
Fc1ccc(-c2nc(-c3nnnn3Cc3ccccc3)cc3c2[nH]c2ccccc23)cc1 [1c]	3.3 ± 0.73 µM	9.6 ± 1.18 µM	29 ± 3.74 µM	3.4 ± 0.16 µM	–	7.5 ± 0.16 µM	IC50 (leukemia (K-562)): < 1 µM; IC50 [1]: < 1 µM; IC50 [4]: < 1 µM; IC50 [5]: < 1 µM
Fc1ccc(-c2nc(-c3nnn[nH]3)cc3c2[nH]c2ccccc23)cc1 [1d]	–	–	–	–	–	–	IC50 [4]: 0.27 µM
COc1cc([C@@H]2c3cc4c(cc3[C@@H](O[C@@H]3O[C@@H]5CO[C@@H](C)O[C@H]5[C@H](O)[C@H]3O)[C@H]3COC(=O)[C@H]23)OCO4)cc(OC)c1O [Etoposide, reference compound]	0.9 ± 0.07 µM	0.7 ± 0.1 µM	0.9 ± 0.07 µM	0.6 ± 0.05 µM	–	0.5 ± 0.07 µM	IC50 (MCF-7 cells; Homo sapiens, MCF7, 48 h): 2.1 ± 0.03 µM; IC50 (A375 cells; Homo sapiens, A-375, 48 h): 0.9 ± 0.07 µM; IC50 (PANC-1 cells; Homo sapiens, PANC-1, 48 h): 3.1 ± 0.05 µM; IC50 (HFF-1 cells): 1.1 ± 0.01 µM; IC50 (HEPG2 cells; Homo sapiens, HepG2, 48 h): 1.7 ± 0.2 µM

The next lines start with results.

IC50 (HCT116 p53−/− cells)	IC50 (HT29 cells)	IC50 (SW837 cells)	IC50 (HCT116 cells [2])	melting point	SMILES	IC50 (CCD-18Co cells)	further results
43 ± 0.82 µM	> 50 µM	> 50 µM	39 ± 2.16 µM	207.5 to 207.9 °C	Clc1ccc(-n2cc(-c3cc4c([nH]c5ccccc54)c(-c4ccccc4)n3)nn2)cc1 [13a, 3-(1-(p-Chlorophenyl)-1H-1,2,3-triazol-4-yl)-1-phenyl-β-carboline]	> 50 µM	–
> 50 µM	> 50 µM	> 50 µM	> 50 µM	237.3 to 238.1 °C	Fc1ccc(-c2nc(-c3cn(-c4ccc(Cl)cc4)nn3)cc3c2[nH]c2ccccc23)cc1 [13b, 3-(1-(p-Chlorophenyl)-1H-1,2,3-triazol-4-yl)-1-(p-fluorophenyl)-β-carboline]	> 50 µM	–
> 50 µM	> 50 µM	> 50 µM	32 ± 2.45 µM	219.7 to 221.3 °C	COc1ccc(-c2nc(-c3cn(-c4ccc(Cl)cc4)nn3)cc3c2[nH]c2ccccc23)cc1 [13c, 3-(1-(p-Chlorophenyl)-1H-1,2,3-triazol-4-yl)-1-(p-methoxyphenyl)-β-carboline]	> 50 µM	–
> 50 µM	> 50 µM	> 50 µM	> 50 µM	244.2 to 245.6 °C	CN(C)c1ccc(-c2nc(-c3cn(-c4ccc(Cl)cc4)nn3)cc3c2[nH]c2ccccc23)cc1 [13d, 3-(1-(p-Chlorophenyl)-1H-1,2,3-triazol-4-yl)-1-(p-dimethylaminophenyl)-β-carboline]	> 50 µM	–
> 50 µM	> 50 µM	> 50 µM	> 50 µM	237.3 to 239.1 °C	O=[N+]([O-])c1cccc(-c2nc(-c3cn(-c4ccc(Cl)cc4)nn3)cc3c2[nH]c2ccccc23)c1 [13e, 3-(1-(p-Chlorophenyl)-1H-1,2,3-triazol-4-yl)-1-(m-nitrophenyl)-β-carboline]	> 50 µM	–
> 50 µM	> 50 µM	> 50 µM	> 50 µM	219.7 to 221.3 °C	Clc1ccc(-n2cc(-c3cc4c([nH]c5ccccc54)c(-c4ccccc4Cl)n3)nn2)cc1 [13f, 3-(1-(p-Chlorophenyl)-1H-1,2,3-triazol-4-yl)-1-(o-chlorophenyl)-β-carboline]	> 50 µM	–
> 50 µM	–	–	> 50 µM	–	COC(=O)c1cc2c([nH]c3ccccc32)c(-c2ccccc2)n1 [14a]	–	–
> 50 µM	–	–	> 50 µM	–	COC(=O)c1cc2c([nH]c3ccccc32)c(-c2ccc(OC)cc2)n1 [14b]	–	–
18 ± 0.47 µM	–	–	15 ± 1.41 µM	–	COC(=O)c1cc2c([nH]c3ccccc32)c(-c2ccc(N(C)C)cc2)n1 [14c]	–	–
> 50 µM	–	–	> 50 µM	–	COC(=O)c1cc2c([nH]c3ccccc32)c(-c2cccc([N+](=O)[O-])c2)n1 [14d]	–	–
> 50 µM	–	–	> 50 µM	–	COC(=O)c1cc2c([nH]c3ccccc32)c(-c2ccccc2Cl)n1 [14e]	–	–
